Test results reported in patent publication US11708562B2, “Differentiation of human embryonic stem cells” (Janssen Biotech, Inc., priority 2006, dated 2023).

System: H9P33, H9P44 and H9P48 cells
Test: Microarray analysis of definitive endoderm on MEFs vs MATRIGEL +/- Wnt-3A (Table VI)
Method: Controls for each group included cells plated on […]-coated dishes and cultured in MEF-conditioned medium or cells plated on MEFs and cultured in ES medium. All groups contained three biological replicates and each biological replicate was repeated on two separate gene chips.
Sample preparation, hybridization, and image analysis were performed according to the Affymetrix Human Genome U133 Plus 2.0 Array. Following normalization and a log transformation, data analysis was performed using OmniViz® software (MA) and […] (VizXLabs, WA). Significant differences in gene expression between the samples were evaluated using analysis of variance and an F-test with adjusted P-value (Benjamini and Hochberg correction) of ≤0.05. Only genes with a present call in at least one group were included in the analysis.

[1] = DE treatment in low serum, on MEFS
[2] = log format, DE treatment in low serum + AA on MATRIGEL

What does the source list for “Activin A: a member of the TGFβ superfamily; growth factor (R&D Systems) used to differentiate human embryonic stem cells”?
mean normalized intensity (log format), Homo sapiens glycophorin Erik STA (GPErik) gene [1]: −0.4544; mean normalized intensity (log format), Homo sapiens growth differentiation factor 3 (GDF3), mRNA [1]: 2.875; mean normalized intensity (log format), Homo sapiens haptoglobin (HP), mRNA [1]: 0.477; mean normalized intensity (log format), Homo sapiens haptoglobin-related protein (HPR), mRNA [1]: −1.196; mean normalized intensity (log format), Homo sapiens homeobox protein goosecoid mRNA, complete cds [1]: 1.894; mean normalized intensity (log format), Homo sapiens hypothetical protein FLJ10718 (FLJ10718), mRNA [1]: 5.552; mean normalized intensity (log format), Homo sapiens hypothetical protein FLJ10970 (FLJ10970), mRNA [1]: 3.02; mean normalized intensity (log format), Homo sapiens hypothetical protein FLJ11316 (FLJ11316), mRNA [1]: 0.7553; mean normalized intensity (log format), Homo sapiens hypothetical protein FLJ22252 similar to SRY-box containing gene 17 (FLJ22252), mRNA [1]: 4.5979; mean normalized intensity (log format), Homo sapiens hypothetical protein FLJ23403 (FLJ23403), mRNA [1]: −1.004; mean normalized intensity (log format), Homo sapiens lumican (LUM), mRNA [1]: 0.9488; mean normalized intensity (log format), Homo sapiens mRNA for GATA-6, complete cds [1]: 5.343; mean normalized intensity (log format), Homo sapiens mRNA for KIAA1409 protein, partial cds [1]: −1.032; mean normalized intensity (log format), Homo sapiens mRNA; cDNA DKFZp434D0818 (from clone DKFZp434D0818) [1]: −0.3056; mean normalized intensity (log format), Homo sapiens mRNA; cDNA DKFZp586J0624 (from clone DKFZp586J0624) [1]: 3.699; mean normalized intensity (log format), Homo sapiens matrix metalloproteinase 14 (membrane-inserted) (MMP14), mRNA [1]: −0.09689; mean normalized intensity (log format), Homo sapiens phorbolin-like protein MDS019 (MDS019), mRNA [1]: 2.408; mean normalized intensity (log format), Homo sapiens presenilin stabilization factor b (PSF) mRNA [1]: 0.5675; mean normalized intensity (log format), Homo sapiens reserved (KCNK12), mRNA [1]: 3.78; mean normalized intensity (log format), Homo sapiens retinoid X receptor, gamma (RXRG), mRNA [1]: −0.3204; mean normalized intensity (log format), Homo sapiens sema domain, immunoglobulin domain (Ig), short basic domain, secreted, (semaphorin) 3E (SEMA3E), mRNA [1]: 1.276; mean normalized intensity (log format), Homo sapiens sema domain, seven thrombospondin repeats, (semaphorin) 5A (SEMA5A), mRNA [1]: 1.487; mean normalized intensity (log format), Homo sapiens solute carrier family 16 (monocarboxylic acid transporters), member 3 (SLC16A3), mRNA [1]: 1.724; mean normalized intensity (log format), Homo sapiens solute carrier family 21 (prostaglandin transporter), member 2 (SLC21A2), mRNA [1]: 2.433; mean normalized intensity (log format), Homo sapiens type VI collagen alpha 2 chain precursor (COL6A2) mRNA [1]: 2.845; mean normalized intensity (log format), Homo sapiens, alpha-1 (VI) collagen [1]: −2.269; mean normalized intensity (log format), Homo sapiens, clone MGC: 4655, mRNA [1]: 2.476; mean normalized intensity (log format), Human (clone 8B1) Br-cadherin mRNA [1]: −1.026; mean normalized intensity (log format), Human (clone HSY3RR) neuropeptide Y receptor (NPYR) mRNA [1]: 5.48; mean normalized intensity (log format), Human DNA sequence from clone RP1-181C24 on chromosome 6p11.1-12.2 (3 end of the BMP5 gene) [1]: −0.3731; mean normalized intensity (log format), Human Fritz mRNA, complete cds [1]: 3.915; mean normalized intensity (log format), Human dipeptidyl peptidase IV (CD26) mRNA [1]: −1.256; mean normalized intensity (log format), Human glycophorin HeP2 mRNA, partial cds [1]: 0.2335; mean normalized intensity (log format), Human link protein mRNA, complete cds [1]: −1.263; mean normalized intensity (log format), Human mRNA for alpha-1 type II collagen [1]: −0.3802; mean normalized intensity (log format), Human mRNA for apolipoprotein AI (apo AI) [1]: 2.497; mean normalized intensity (log format), Human prostatic secretory protein 57 mRNA [1]: −0.4077; mean normalized intensity (log format), KIAA0878 protein [1]: 4.789; mean normalized intensity (log format), KIAA1462 protein [1]: 0.4371; mean normalized intensity (log format), MCP-1 = monocyte chemotactic protein [1]: 2.955; mean normalized intensity (log format), Rho GDP dissociation inhibitor (GDI) alpha [1]: −2.582; mean normalized intensity (log format), WAS protein family, member 2 [1]: −1.06; mean normalized intensity (log format), collagen, type IX, alpha 2 [1]: 2.935; mean normalized intensity (log format), collagen, type VI, alpha 1 [1]: 0.6042; mean normalized intensity (log format), glycophorin B (includes Ss blood group) [1]: −0.1297; mean normalized intensity (log format), hepatocyte nuclear factor 4, alpha [1]: 0.4452; mean normalized intensity (log format), homeo box HB9 [1]: 1.631; mean normalized intensity (log format), hypothetical protein FLJ21032 [1]: 2.618; mean normalized intensity (log format), hypothetical protein FLJ23091 [1]: 3.78; mean normalized intensity (log format), hypothetical protein FLJ23403 [1]: −2.313; mean normalized intensity (log format), matrix metalloproteinase 14 (membrane-inserted) [1]: −0.5185; mean normalized intensity (log format), microfibrillar-associated protein 4 [1]: −0.6009; mean normalized intensity (log format), myristoylated alanine-rich protein kinase C substrate (MARCKS, 80K-L) [1]: 0.3357; mean normalized intensity (log format), neuropilin 1 [1]: −1.9667; mean normalized intensity (log format), noggin [1]: 1.33; mean normalized intensity (log format), phorbolin-like protein MDS019 [1]: 0.5035; mean normalized intensity (log format), solute carrier family 16 (monocarboxylic acid transporters), member 3 [1]: 0.279; mean normalized intensity (log format), splicing factor, arginineserine-rich 5 [1]: 4.272; mean normalized intensity (log format), stanniocalcin 1 [1]: 6.143; mean normalized intensity: DKFZP566K1924 protein [2]: 2.882; mean normalized intensity: ESTs, Moderately similar to ALU2_HUMAN ALU SUBFAMILY SB SEQUENCE CONTAMINATION WARNING ENTRY (H. sapiens) [2]: 4.241; mean normalized intensity: H. sapiens mRNA for B-HLH DNA binding protein. [2]: 5.43; mean normalized intensity: Homo sapiens BCL2-interacting killer (apoptosis-inducing) (BIK), mRNA. [2]: 4.3; mean normalized intensity: Homo sapiens Charot-Leyden crystal protein (CLC), mRNA. [2]: 3.301; mean normalized intensity: Homo sapiens HES-related repressor protein 1 HERP1 mRNA, complete cds. [2]: 2.806; mean normalized intensity: Homo sapiens HSPC156 protein (HSPC156), mRNA. [2]: 0.7862; mean normalized intensity: Homo sapiens KIAA0469 gene product (KIAA0469), mRNA. [2]: 4.031; mean normalized intensity: Homo sapiens PNAS-123 mRNA, complete cds [2]: 1.597; mean normalized intensity: Homo sapiens Wilms tumor 1 (WT1), transcript variant D, mRNA. [2]: 2.405; mean normalized intensity: Homo sapiens cDNA FLJ11398 fis, clone HEMBA1000637. [2]: 2.5268; mean normalized intensity: Homo sapiens cDNA: FLJ22547 fis, clone HSI00356 [2]: 4.294; mean normalized intensity: Homo sapiens cadherin 6, type 2, K-cadherin (fetal kidney) (CDH6), mRNA. [2]: 0.8248
